# Assay results from the supplement of paper PMC10331698.
# ± gives the standard deviation of the averaged measurements.
# How the values were obtained:
# Test in all cases: level (log10 ratio to DMSO vehicle control); higher = higher biomarker level / cell amount than vehicle control
# [1] = compound: CN(C(=O)C(F)(F)C(F)(F)C(F)(F)F)[Si](C)(C)C [N-Methyl-N-trimethylsilylheptafluorobutyramide] (in DMSO)
# Description: (§1)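 BioMAP Diversity Plus panel of 12 human primary cell co-culture systems (3C, 4H, LPS, SAg, BT, BF4T, BE3C, CASM3C, HDF3CGF, KF3CT, MyoF, Mphg). Compounds were added 1 h before stimulation and left for 24 h (MyoF 48 h; BT 72 h for soluble read-outs or 6 d for IgG). Biomarkers were read by ELISA, cytotoxicity by SRB, PBMC viability and proliferation by Alamar Blue. Each well value was divided by the mean of 8 DMSO control wells on the same plate and log10 transformed; duplicate blinded samples were tested at 4 concentrations.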
# [2] = compound: CO[Si](C)(CCC(F)(F)C(F)(F)C(F)(F)C(F)(F)C(F)(F)C(F)(F)F)OC [Dimethoxymethyl((perfluorohexyl)ethyl)silane] (in DMSO)
# Description: as §1
# [3] = compound: NS(=O)(=O)C(F)(F)C(F)(F)C(F)(F)C(F)(F)C(F)(F)C(F)(F)C(F)(F)C(F)(F)F [Perfluorooctanesulfonamide] (in DMSO)
# Description: as §1
# [4] = compound: O=C(O)C(F)(F)C(F)(F)C(F)(F)C(F)(F)C(F)(F)C(F)(F)C(F)(F)C(F)(F)C(F)(F)C(F)(F)F [Perfluoroundecanoic acid] (in DMSO); conditions: 6700 nM
# Description: as §1
# [5] = compound: O=C(O)C=C(C(F)(F)F)C(F)(F)F [3,3-Bis(trifluoromethyl)-2-propenoic acid] (in DMSO)
# Description: as §1
# [6] = compound: O=C(O)CCC(F)(C(F)(F)F)C(F)(F)F [4,4-bis(Trifluoromethyl)-4-fluoropropanoic acid] (in DMSO)
# Description: as §1
# [7] = compound: OCC(F)(F)OC(F)(F)C(F)(F)OC(F)(F)C(F)(F)OC(F)(F)CO [1H,1H,11H,11H-Perfluorotetraethylene glycol] (in DMSO)
# Description: as §1
# [8] = compound: OCCC(F)(F)C(F)(F)C(F)(F)C(F)(F)F [4:2 Fluorotelomer alcohol] (in DMSO)
# Description: as §1
Test System,level (log10) ([1]; 6700 nM),level (log10) ([1]; 20000 nM),level (log10) ([1]; 60000 nM),level (log10) ([2]; 6700 nM),level (log10) ([2]; 20000 nM),level (log10) ([3]; 6700 nM),level (log10) ([3]; 20000 nM),level (log10) [4],level (log10) ([5]; 6700 nM),level (log10) ([5]; 20000 nM),level (log10) ([5]; 60000 nM),level (log10) ([6]; 6700 nM),level (log10) ([6]; 20000 nM),level (log10) ([6]; 60000 nM),level (log10) ([7]; 6700 nM),level (log10) ([7]; 20000 nM),level (log10) ([7]; 60000 nM),level (log10) ([8]; 6700 nM),level (log10) ([8]; 20000 nM),level (log10) ([8]; 60000 nM)
CASM3C:Proliferation,-0.017 ± 0.03,-0.0095 ± 0.00071,0.039 ± 0.033,0.0455 ± 0.0078,0.041 ± 0.061,-0.027 ± 0.0085,0.0415 ± 0.032,0.0285 ± 0.011,-0.0475 ± 0.0035,-0.0555 ± 0.015,-0.177 ± 0.06,0.002 ± 0.013,-0.012 ± 0.0099,-0.003 ± 0.023,-0.039 ± 0.079,-0.039 ± 0.062,-0.12 ± 0.03,0.0185 ± 0.03,0.0335 ± 0.044,0.0185 ± 0.028
CASM3C:SRB,-0.001 ± 0.0042,0.0085 ± 0.012,-0.002 ± 0.011,-0.006 ± 0.0042,-0.011 ± 0.0028,0.0075 ± 0.011,-0.0075 ± 0.0021,0.0025 ± 0.0035,0.0145 ± 0.016,-0.0075 ± 0.0021,-0.027,-0.007 ± 0.0014,-0.0005 ± 0.0078,-0.0025 ± 0.0035,-0.0025 ± 0.0064,-0.008 ± 0.0057,-0.0275 ± 0.012,0.0045 ± 0.0035,-0.008,0.0015 ± 0.0092
CASM3C:Serum Amyloid A,-0.018 ± 0.0099,-0.0275 ± 0.025,0.013 ± 0.082,-0.015 ± 0.0014,0.014 ± 0.041,0.0055 ± 0.028,0.012 ± 0.047,0.014 ± 0.016,-0.013 ± 0.021,-0.0185 ± 0.0092,-0.005 ± 0.038,-0.008 ± 0.013,0.064 ± 0.059,0.159 ± 0.0057,0.0105 ± 0.0092,-0.0065 ± 0.00071,0.002 ± 0.045,-0.081 ± 0.081,-0.0345 ± 0.023,-0.013 ± 0.1
HDF3CGF:CCL2/MCP-1,-0.032 ± 0.0085,-0.0245 ± 0.0078,-0.0205 ± 0.028,-0.026 ± 0.034,-0.008 ± 0.054,-0.0105 ± 0.0064,-0.567 ± 0.14,-0.077 ± 0.042,-0.0775 ± 0.052,-0.0935 ± 0.056,-0.084 ± 0.028,-0.014 ± 0.016,-0.01 ± 0.017,0.005 ± 0.0042,-0.044 ± 0.031,-0.073 ± 0.027,-0.172 ± 0.067,-0.0305 ± 0.08,-0.043 ± 0.027,-0.0315 ± 0.052
HDF3CGF:CD54/ICAM-1,-0.009 ± 0.013,-0.0085 ± 0.018,0.011 ± 0.023,-0.013 ± 0.0099,-0.0125 ± 0.012,-0.021 ± 0.0042,-0.88 ± 0.26,-0.0765 ± 0.00071,0.033 ± 0.035,0.032 ± 0.027,0.0555 ± 0.021,0.006 ± 0.0099,-0.009 ± 0.041,-0.0025 ± 0.005,0.0025 ± 0.018,-0.019 ± 0.04,-0.106 ± 0.091,-0.0095 ± 0.019,-0.0255 ± 0.0035,-0.0285 ± 0.005
HDF3CGF:CD106/VCAM-1,-0.0155 ± 0.0092,-0.0165 ± 0.0021,-0.024 ± 0.0028,-0.0175 ± 0.00071,0.001 ± 0.0085,-0.147 ± 0.027,-0.364 ± 0.023,-0.213 ± 0.044,-0.0485 ± 0.021,-0.0795 ± 0.005,-0.17 ± 0.013,-0.0525 ± 0.069,-0.0555 ± 0.12,-0.0835 ± 0.12,-0.09 ± 0.0042,-0.202,-0.264 ± 0.044,-0.023 ± 0.014,0.014 ± 0.035,-0.062 ± 0.057
HDF3CGF:CXCL8/IL-8,-0.0015 ± 0.0092,-0.003 ± 0.0057,0.0075 ± 0.0078,-0.0055 ± 0.0035,0.01 ± 0.0028,0.004 ± 0.0085,-0.204 ± 0.11,0.013 ± 0.0028,0.008 ± 0.0014,-0.001,0.022 ± 0.011,-0.0105 ± 0.013,-0.0005 ± 0.0092,0.0065 ± 0.03,0.0015 ± 0.028,-0.0025 ± 0.011,0.0115 ± 0.0064,-0.007 ± 0.0028,-0.0105 ± 0.0064,-0.002 ± 0.011
HDF3CGF:CXCL9/MIG,-0.0105 ± 0.0035,-0.004 ± 0.0057,-0.009 ± 0.018,-0.0005 ± 0.005,-0.005 ± 0.035,-0.203 ± 0.011,-0.761 ± 0.11,-0.0645 ± 0.005,-0.006 ± 0.0028,-0.0075 ± 0.013,-0.0175 ± 0.015,-0.0105 ± 0.039,-0.0215 ± 0.056,-0.0305 ± 0.054,-0.105 ± 0.011,-0.283 ± 0.03,-0.525 ± 0.14,-0.0335 ± 0.037,-0.0065 ± 0.0064,0.01 ± 0.04
HDF3CGF:CXCL10/IP-10,0.0155 ± 0.00071,0.0165 ± 0.013,0.005 ± 0.0028,-0.0105 ± 0.026,-0.0165 ± 0.035,-0.216 ± 0.011,-0.893 ± 0.047,-0.144 ± 0.0092,-0.0175 ± 0.005,-0.0445 ± 0.005,-0.04 ± 0.025,-0.0175 ± 0.084,-0.0415 ± 0.088,-0.0395 ± 0.035,-0.0435 ± 0.04,-0.155 ± 0.013,-0.418 ± 0.059,-0.0075 ± 0.025,-0.002 ± 0.023,-0.0095 ± 0.0035
HDF3CGF:CXCL11/I-TAC,-0.0135 ± 0.0035,-0.015 ± 0.0099,-0.03,-0.026,-0.035 ± 0.014,-0.111 ± 0.013,-0.492 ± 0.028,-0.062 ± 0.024,-0.038 ± 0.011,-0.0555 ± 0.035,-0.033 ± 0.054,-0.035 ± 0.079,-0.0465 ± 0.074,-0.0745 ± 0.12,-0.0395 ± 0.053,-0.139 ± 0.077,-0.319 ± 0.13,-0.039 ± 0.035,0.011 ± 0.0014,-0.0275 ± 0.029
HDF3CGF:Collagen I,-0.058 ± 0.021,-0.0195 ± 0.053,-0.0335 ± 0.039,0.0095 ± 0.077,0.052 ± 0.038,0.08 ± 0.037,-0.0535 ± 0.046,-0.0645 ± 0.03,-0.031 ± 0.0028,-0.041 ± 0.02,-0.03 ± 0.038,-0.0105 ± 0.025,-0.0025 ± 0.028,0.0195 ± 0.026,-0.021 ± 0.065,-0.0405 ± 0.053,-0.116 ± 0.0057,-0.0205 ± 0.0078,-0.0025 ± 0.0092,0.0475 ± 0.05
HDF3CGF:Collagen III,0.0005 ± 0.00071,-0.0175 ± 0.005,-0.0675 ± 0.037,-0.022 ± 0.035,-0.0165 ± 0.07,-0.0345 ± 0.012,-0.449 ± 0.019,-0.049 ± 0.05,-0.0905 ± 0.012,-0.0985 ± 0.029,-0.0635 ± 0.069,-0.005 ± 0.04,-0.0495 ± 0.11,-0.0455 ± 0.04,-0.008 ± 0.092,-0.087 ± 0.12,-0.211 ± 0.12,-0.055 ± 0.068,-0.0105 ± 0.0092,0.0335 ± 0.03
HDF3CGF:EGFR,-0.0055 ± 0.005,-0.005,0.0195 ± 0.0092,-0.0055 ± 0.005,0 ± 0.018,-0.016 ± 0.014,-0.171 ± 0.016,-0.162 ± 0.0014,-0.02 ± 0.041,-0.039 ± 0.05,-0.0145 ± 0.0035,-0.05 ± 0.028,-0.0445 ± 0.04,-0.013 ± 0.033,-0.008 ± 0.0085,-0.0005 ± 0.025,0.013 ± 0.021,-0.0285 ± 0.028,-0.001 ± 0.072,0.0275 ± 0.053
HDF3CGF:M-CSF,-0.0375 ± 0.03,-0.038 ± 0.0085,-0.029 ± 0.055,-0.039 ± 0.0028,-0.02 ± 0.025,-0.0605 ± 0.012,-0.507 ± 0.07,-0.0425 ± 0.015,-0.0595 ± 0.0078,-0.072 ± 0.042,-0.051 ± 0.014,-0.0205 ± 0.081,-0.0565 ± 0.13,-0.0735 ± 0.15,-0.036 ± 0.083,-0.121 ± 0.098,-0.261 ± 0.046,-0.027 ± 0.067,-0.035 ± 0.023,-0.004 ± 0.0057
